{
  "source": "patent US20240229156A1",
  "about": "“METHODS FOR USING A HYPOMETHYLATING AGENT TO TREAT DISEASES AND DISORDERS BASED ON GENE MUTATION PROFILES” (Celgene Corporation, priority 2021, published 2024)",
  "key": {"[1]": {"tested_on": "patients with AML who were in first remission after intensive chemotherapy", "experiment": "Phase 3 QUAZAR (CC0486-AML-001) trial of CC-486 maintenance: gene mutation, cytogenetic and MRD status correlated with OS and RFS", "format": "in vivo, human", "description": "The correlative analyses of gene mutations with clinical indices (overal survival (OS), relapse-free survival (RFS)) were performed in the CC0486-AML-001 study (the QUAZAR® study). […] In this clinical trial, the key enrollment criteria included newly diagnosed de novo or secondary AML patients, with either intermediate or poor risk (based on the 2012 National Comprehensive Cancer Network (NCCN) classification), were 55 years of age or older, who were in complete remission with or without complete blood count recovery. Patients were also those that were not candidates for hematopoietic stem-cell transplantation. See, ClinicalTrials.gov Identifier: NCT01757535, https://clinicaltrials.gov/ct2/show/NCT01757535, the entirety of which is incorporated herein by reference.\nThe primary end point was overall survival (OS). Secondary end points included relapse-free survival (RFS).\nBone marrow mononuclear cell (BMMC) DNA was isolated from patients at diagnoses (before consideration for study enrollment) and specific gene mutations (NPM1, FLT3 ITD, FLT3 TKD, CEBPA, MLL, P53, cKIT, NRAS) were determined by investigator report or retrospectively identified by central sequencing for available samples. Cytogenetic risk classification was performed according to the 2012 NCCN Guidelines (source: National Comprehensive Cancer Network Clinical Practice Guidelines in Oncology for Acute Myeloid Leukemia; available at https://www.nccn.org/professionals/physician_gls/PDF/aml.pdf); only intermediate- and poor-risk patients were eligible.\nAt screening (post-IC/C induction chemotherapy/consolidation, when patients achieved complete remission (CR) or CR with incomplete blood count recovery (CRi), gene mutations were identified by targeted next-generation sequencing (ArcherDX VariantPlex Core Myeloid panel; 37 genes, ArcherDX, Boulder, CO) of DNA isolated from BMMCs. Gene mutational analyses and variants reported were based on the sequence coverages of the 37-gene AML panel. Mutation variants were filtered. Karyotypes from post-IC/C bone marrow samples were determined by MLL (Munich Leukemia Laboratory, Munich, Germany). […] defined as three or more cytogenetic abnormalities in the absence of a WHO designated recurring translocation or inversion; i.e., t(8;21)(q22;q22.1); t(9;11)(p21.3;q23.3); inv(3)(q21.3q26.2) or t(3;3)(q21.3;q26.2); t(6;9)(p23;q34.1); t(v;11;q23.3).\nWhen applicable, statistical analyses were performed using Prism Software (v.8.0.0; GraphPad Software, San Diego, CA) or R statistical computing software environment (v3.6.3). OS and RFS were estimated using Kaplan-Meier methods and P values were calculated using the log-rank test. Cox regression analyses were performed to evaluate the association of gene mutation status and treatment arm with OS and RFS. Gene mutation frequencies and landscape were visualized. Correlative analyses including single gene mutation and co-mutational queries were performed with clinical response. All possible pairings between genes and/or cytogenetic alterations were evaluated for tendency to co-occur or for mutual exclusivity; i.e., a pair of alterations occurring together more frequently or rarely than expected by their individual frequencies, as described by Papaemmanuil et al. (N Engl J Med, 2016). 2×2 contingency tables were generated to test putative associations using Fisher's exact tests and adjusted to control for multiple hypothesis testing. Significant differences between groups were assessed using statistical methods listed in the corresponding Figure footnotes. P-values were considered statistically significant at *p≤0.05, **p≤0.01, or ***p≤0.001."}, "DNA methylation": {"tested_on": "DNA methylation", "conditions": "clinical studies; cited from earlier work"}},
  "note": "“And” between values parts separate entries of the source, which are not always exact repeats. Equal entries are not always repeated.",
  "data": [
    {"smiles": "Nc1ncn([C@@H]2O[C@H](CO)C(O)C2O)c(=O)n1", "note": "(stereo partly drawn) [CC-486, 4-amino-l-B-D-ribofuranosyl-1,3,5-triazin-2(1H)-one]", "values": [
      {"measurement": "median OS", "setting": "[1]; DNMT3A mutation postIC/C, FIG. 18A, placebo 13.0, p=0.0003", "value": 24.8, "unit": "months"},
      {"measurement": "median RFS", "setting": "[1]; DNMT3A mutation postIC/C, FIG. 18B, placebo 4.7, p<0.0001", "value": 18.4, "unit": "months"},
      {"measurement": "median OS", "setting": "[1]; FIG. 6B (RFS figure), NPM1 mutation at diagnosis, placebo 6.9, p=0.0098", "value": 23.2, "unit": "months"},
      {"measurement": "median OS", "setting": "[1]; FIG. 9B (RFS figure), FLTITD/FLT3-TKD mutation, placebo 4.6, p=0.0475", "value": 23.1, "unit": "months"},
      {"measurement": "median OS", "setting": "[1]; FIG. 10B (RFS figure), NPM1 mutation and FLTITD WT, placebo 7.8, p=0.0572", "value": 21.1, "unit": "months"},
      {"measurement": "median OS", "setting": "[1]; FIG. 10F (RFS figure), NPM1 WT and FLTITD mutation, placebo 4.0, p=0.9446", "value": 4.5, "unit": "months"},
      {"measurement": "median OS", "setting": "[1]; FLTITD/FLT3-TKD mutation NPM1 WT, FIG. 13B, placebo 8.7, p=0.4105", "value": 11.8, "unit": "months"},
      {"measurement": "prolonged RFS, CC-486 vs placebo", "setting": "[1]; FLTITD/FLT3-TKD mutation NPM1 WT, FIG. 13D", "value": "no statistical significance"},
      {"measurement": "median OS", "setting": "[1]; FLTITD/FLT3-TKD mutation at diagnosis, placebo 9.7, p=0.0797", "value": 28.2, "unit": "months"},
      {"measurement": "median RFS", "setting": "[1]; FLTITD/FLT3-TKD wild type, placebo 4.9, p=0.0009", "value": 10.2, "unit": "months"},
      {"measurement": "median OS", "setting": "[1]; FLTITD/FLT3-TKD wild type, placebo 15.2, p=0.0123", "value": 24.7, "unit": "months"},
      {"measurement": "median OS", "setting": "[1]; NPM1 WT and FLTITD mutation, FIG. 10E, placebo 9.7, p=0.9207", "value": 9.2, "unit": "months"},
      {"measurement": "median OS", "setting": "[1]; NPM1 mutation FLTITD WT, FIG. 10A, placebo 18.0, p=0.0802", "value": 47.1, "unit": "months"},
      {"measurement": "median OS", "setting": "[1]; NPM1 mutation FLTITD/FLT3-TKD WT, FIG. 13A, placebo 20.2, p=0.0763", "value": 47.1, "unit": "months"},
      {"measurement": "median RFS", "setting": "[1]; NPM1 mutation FLTITD/FLT3-TKD WT, FIG. 13C, placebo 7.7, p=0.0827", "value": 18.4, "unit": "months"},
      {"measurement": "median OS", "setting": "[1]; NPM1 mutation FLTITD/FLT3-TKD mutation, FIG. 13A and 13B, placebo 13.4, p=0.0827", "value": 46.1, "unit": "months"},
      {"measurement": "median RFS", "setting": "[1]; NPM1 mutation FLTITD/FLT3-TKD mutation, FIG. 13C and 13D, placebo 4.9, p=0.0278", "value": 46.1, "unit": "months"},
      {"measurement": "median OS", "setting": "[1]; NPM1 mutation and FLTITD mutation, FIG. 10C, placebo 11.5, p=0.0488", "value": 49.3, "unit": "months"},
      {"measurement": "median RFS", "setting": "[1]; NPM1 mutation and FLTITD mutation, FIG. 10D, placebo 4.6, p=0.0368", "value": 10.2, "unit": "months"},
      {"measurement": "median OS", "setting": "[1]; NPM1 mutation and MRD negative status, FIG. 6C", "value": 47.2, "unit": "months"},
      {"measurement": "median OS", "setting": "[1]; NPM1 mutation and MRD positive status, FIG. 6C", "value": 32.7, "unit": "months"},
      {"measurement": "median RFS", "setting": "[1]; NPM1 mutation at diagnosis, FIG. 5C, vs NPM1 wild type p<0.0001", "value": 23.23, "unit": "months"},
      {"measurement": "median OS", "setting": "[1]; NPM1 mutation at diagnosis, placebo 15.9, p=0.0138, vs NPM1 wild type p=0.0006", "value": "46.09 months and 46.1 months"},
      {"measurement": "median OS", "setting": "[1]; NPM1 wild type and MRD negative, FIG. 6C", "value": 24.6, "unit": "months"},
      {"measurement": "median OS", "setting": "[1]; NPM1 wild type and MRD positive status, FIG. 6C", "value": 13.8, "unit": "months"},
      {"measurement": "median RFS", "setting": "[1]; NPM1 wild type at diagnosis, placebo 4.6, p=0.0029", "value": "7.688 months and 7.7 months"},
      {"measurement": "median OS", "setting": "[1]; NPM1 wild type at diagnosis, placebo 14.6, p=0.0365", "value": "19.58 months and 19.6 months"},
      {"measurement": "OS, CC-486 versus placebo", "setting": "[1]; WT DNMT3A postIC/C", "value": "No differences"},
      {"measurement": "RFS, CC-486 versus placebo", "setting": "[1]; WT DNMT3A postIC/C", "value": "No differences"},
      {"measurement": "OS, CC-486 versus placebo", "setting": "[1]; WT p53 postIC/C", "value": "increases"},
      {"measurement": "RFS, CC-486 versus placebo", "setting": "[1]; WT p53 postIC/C", "value": "increases"},
      {"measurement": "OS, CC-486 versus placebo", "setting": "[1]; abnormal karyotype (>1 abnormality) postIC/C, FIG. 17C", "value": "no statistically significant differences"},
      {"measurement": "RFS, CC-486 versus placebo", "setting": "[1]; abnormal karyotype (>1 abnormality) postIC/C, FIG. 17D", "value": "no statistically significant differences"},
      {"measurement": "median RFS", "setting": "[1]; complex karyotype (≥4 abnormalities) postIC/C, vs normal karyotype p<0.0001", "value": 1.906, "unit": "months"},
      {"measurement": "median OS", "setting": "[1]; complex karyotype (≥4 abnormalities) postIC/C, vs normal karyotype p=0.0003", "value": 6.932, "unit": "months"},
      {"measurement": "median OS", "setting": "[1]; de novo AML, FIG. 1A, placebo 14.55, p=0.0068", "value": 23.23, "unit": "months"},
      {"measurement": "median RFS", "setting": "[1]; de novo AML, FIG. 1B, placebo 4.90, p=0.0002", "value": 10.15, "unit": "months"},
      {"measurement": "median RFS", "setting": "[1]; intermediate cytogenetic risk at diagnosis, placebo 5.8, p=0.0004", "value": 11, "unit": "months"},
      {"measurement": "median OS", "setting": "[1]; intermediate cytogenetic risk at diagnosis, placebo 16, p=0.0093", "value": 25, "unit": "months"},
      {"measurement": "RFS, CC-486 versus placebo", "setting": "[1]; mutations in SRSF2 alone postIC/C, FIG. 21A, p=0.0809", "value": "trend for improved RFS"},
      {"measurement": "median OS", "setting": "[1]; normal karyotype (no abnormalities) postIC/C, placebo 14.95, p=0.004, vs complex karyotype p=0.0003", "value": "25.10 months and 25.1 months"},
      {"measurement": "median RFS", "setting": "[1]; normal karyotype postIC/C, placebo 4.895, p<0.0001, vs complex karyotype p<0.0001", "value": 10.97, "unit": "months"},
      {"measurement": "median OS", "setting": "[1]; other patients (lack NPM1 mutation in combination with FLTITD WT), FIG. 10A, placebo 14.6, p=0.0119", "value": 20.2, "unit": "months"},
      {"measurement": "median RFS", "setting": "[1]; other patients, FIG. 10B, placebo 4.6, p=0.0006", "value": 7.9, "unit": "months"},
      {"measurement": "median OS", "setting": "[1]; other patients, FIG. 10C, placebo 14.9, p=0.0080", "value": 24.7, "unit": "months"},
      {"measurement": "median RFS", "setting": "[1]; other patients, FIG. 10D, placebo 4.1, p=0.0008", "value": 10.2, "unit": "months"},
      {"measurement": "median OS", "setting": "[1]; other patients, FIG. 10E, placebo 14.9, p=0.0020", "value": 25.0, "unit": "months"},
      {"measurement": "median RFS", "setting": "[1]; other patients, FIG. 10F, placebo 4.9, p<0.0001", "value": 10.2, "unit": "months"},
      {"measurement": "OS, CC-486 versus placebo", "setting": "[1]; p53 mutation postIC/C, FIG. 18C", "value": "no statistically significant differences"},
      {"measurement": "median RFS", "setting": "[1]; p53 mutation postIC/C, FIG. 18D, placebo 3.5, p=0.0579", "value": 7.4, "unit": "months"},
      {"measurement": "differences in median OS or median RFS, normal versus abnormal karyotype", "setting": "[1]; patients treated with CC-486, abnormal karyotype (1-3 abnormalities), FIG. 16", "value": "statistically significant differences"},
      {"measurement": "median RFS", "setting": "[1]; poor cytogenetic risk at diagnosis, placebo 3.7, p=0.0776", "value": 4.6, "unit": "months"},
      {"measurement": "median OS", "setting": "[1]; poor cytogenetic risk at diagnosis, placebo 7.4, p=0.0602", "value": 14, "unit": "months"},
      {"measurement": "median OS", "setting": "[1]; secondary AML, FIG. 1A, placebo 15.67, p=0.1072", "value": 28.19, "unit": "months"},
      {"measurement": "median RFS", "setting": "[1]; secondary AML, FIG. 1B, placebo 2.45, p=0.0118", "value": 4.67, "unit": "months"},
      {"measurement": "demethylative effects as compared to VIDAZA", "setting": "DNA methylation", "value": "more sustainable demethylative effects"}
    ]}
  ]
}
